The record followed here is paper PMC5218480 (PLoS ONE, 2017).

The test system of this assay is MV-4-11 cells. Description: Gene expression microarray analysis (Affymetrix PrimeView) and GSEA. Also noted: RFU PODN (11730768_x_at) / Fold change /veh PODN (11730768_x_at) / RFU LINC00158 (11744669_a_at) / Fold change /veh LINC00158 (11744669_a_at) / RFU DUSP10 (11751237_a_at) / Fold change /veh DUSP10 (11751237_a_at) / RFU ID3 (11757404_x_at) / Fold change /veh ID3 (11757404_x_at) / RFU PLEKHG5 (11737974_s_at) / Fold change /veh PLEKHG5 (11737974_s_at) / RFU LRRC4B (11730491_at) / Fold change /veh LRRC4B (11730491_at) / RFU GIMAP4 (11747438_a_at) / Fold change /veh GIMAP4 (11747438_a_at) / RFU KRT8 (11758183_x_at) / Fold change /veh KRT8 (11758183_x_at) / RFU CNN1 (11734310_a_at) / Fold change /veh CNN1 (11734310_a_at) / RFU VPS37D (11726825_at) / Fold change /veh VPS37D (11726825_at) / RFU C10orf10 (11716522_x_at) / Fold change /veh C10orf10 (11716522_x_at) / RFU KIR2DL2 /// KIR2DL4 /// KIR2DL5A /// KIR2DL5B /// KIR2DS1 /// KIR2DS2 /// KIR2DS3 /// KIR2DS4 /// KIR3DL3 /// KIR3DL3 /// KIR3DS1 (11738374_at) / Fold change /veh KIR2DL2 /// KIR2DL4 /// KIR2DL5A /// KIR2DL5B /// KIR2DS1 /// KIR2DS2 /// KIR2DS3 /// KIR2DS4 /// KIR3DL3 /// KIR3DL3 /// KIR3DS1 (11738374_at) / RFU C1QL1 (11718748_at) / Fold change /veh C1QL1 (11718748_at) / RFU TMPRSS4 (11747572_a_at) / Fold change /veh TMPRSS4 (11747572_a_at) / RFU HAMP (11756126_x_at) / Fold change /veh HAMP (11756126_x_at) / RFU RNFT2 (11725882_a_at) / Fold change /veh RNFT2 (11725882_a_at) / RFU NR4A2 (11747474_a_at) / Fold change /veh NR4A2 (11747474_a_at) / RFU ABCC12 (11746883_a_at) / Fold change /veh ABCC12 (11746883_a_at) / RFU TMEM136 (11760407_x_at) / Fold change /veh TMEM136 (11760407_x_at) / RFU CLDN22 /// WWC2 (11732394_at) / Fold change /veh CLDN22 /// WWC2 (11732394_at) / RFU HLA-DPB1 (11760878_x_at) / Fold change /veh HLA-DPB1 (11760878_x_at) / RFU SPINT1 (11716480_a_at) / Fold change /veh SPINT1 (11716480_a_at) / RFU GAP43 (11754022_s_at) / Fold change /veh GAP43 (11754022_s_at) / RFU A4GNT (11735810_at) / Fold change /veh A4GNT (11735810_at) / RFU PRB3 (11715151_x_at) / Fold change /veh PRB3 (11715151_x_at) / RFU TUBB4B (11761932_at) / Fold change /veh TUBB4B (11761932_at) / RFU CAPN14 (11732068_a_at) / Fold change /veh CAPN14 (11732068_a_at) / RFU TMCC2 (11721928_a_at) / Fold change /veh TMCC2 (11721928_a_at) / RFU IRGQ (11745062_a_at) / Fold change /veh IRGQ (11745062_a_at) / RFU FAM174B (11720279_a_at) / Fold change /veh FAM174B (11720279_a_at) / RFU TMPRSS4 (11748680_a_at) / Fold change /veh TMPRSS4 (11748680_a_at) / RFU FAM212B (11763350_a_at) / Fold change /veh FAM212B (11763350_a_at) / RFU PLEKHG5 (11743358_a_at) / Fold change /veh PLEKHG5 (11743358_a_at) / RFU ZSCAN30 (11745921_a_at) / Fold change /veh ZSCAN30 (11745921_a_at) / RFU CMKLR1 (11741424_a_at) / Fold change /veh CMKLR1 (11741424_a_at) / RFU LOC101060620 /// MAPK8IP1 (11723275_at) / Fold change /veh LOC101060620 /// MAPK8IP1 (11723275_at) / RFU SPTSSB (11747773_x_at) / Fold change /veh SPTSSB (11747773_x_at) / RFU PRSS12 (11739890_at) / Fold change /veh PRSS12 (11739890_at) / RFU BIN1 (11741810_x_at) / Fold change /veh BIN1 (11741810_x_at) / RFU WNT11 (11732464_a_at) / Fold change /veh WNT11 (11732464_a_at) / RFU C10orf10 (11716521_a_at) / Fold change /veh C10orf10 (11716521_a_at) / RFU C5orf56 (11738089_at) / Fold change /veh C5orf56 (11738089_at) / RFU CYB561 (11721691_x_at) / Fold change /veh CYB561 (11721691_x_at) / RFU ANKRD19P (11752326_a_at) / Fold change /veh ANKRD19P (11752326_a_at) / RFU OR2T12 /// OR2T33 /// OR2T8 (11738714_s_at) / Fold change /veh OR2T12 /// OR2T33 /// OR2T8 (11738714_s_at) / RFU VCAN (11748164_a_at) / Fold change /veh VCAN (11748164_a_at) / RFU JSRP1 (11732532_at) / Fold change /veh JSRP1 (11732532_at) / RFU KRTAP10-11 (11738290_x_at) / Fold change /veh KRTAP10-11 (11738290_x_at) / RFU MYO3A (11730013_a_at) / Fold change /veh MYO3A (11730013_a_at) / RFU EBF3 (11725865_a_at) / Fold change /veh EBF3 (11725865_a_at) / RFU CAMK2N1 (11719241_x_at) / Fold change /veh CAMK2N1 (11719241_x_at) / RFU C5orf56 (11738088_a_at) / Fold change /veh C5orf56 (11738088_a_at) / RFU OLFML3 (11715873_a_at) / Fold change /veh OLFML3 (11715873_a_at) / RFU LOC100653217 /// NTM (11731650_a_at) / Fold change /veh LOC100653217 /// NTM (11731650_a_at) / RFU MAPK11 (11762145_a_at) / Fold change /veh MAPK11 (11762145_a_at) / RFU FIZ1 (11724087_x_at) / Fold change /veh FIZ1 (11724087_x_at) / RFU OASL (11726364_x_at) / Fold change /veh OASL (11726364_x_at) / RFU SOX15 (11748057_x_at) / Fold change /veh SOX15 (11748057_x_at) / RFU CD79A (11719716_a_at) / Fold change /veh CD79A (11719716_a_at) / RFU HIST1H1D (11736915_at) / Fold change /veh HIST1H1D (11736915_at) / RFU CASKIN2 (11723855_a_at) / Fold change /veh CASKIN2 (11723855_a_at) / RFU LOC730098 (11760151_x_at) / Fold change /veh LOC730098 (11760151_x_at) / RFU OR4N2 (11742367_at) / Fold change /veh OR4N2 (11742367_at) / RFU PRRT2 (11749266_a_at) / Fold change /veh PRRT2 (11749266_a_at) / RFU SNX32 (11753110_a_at) / Fold change /veh SNX32 (11753110_a_at) / RFU CDHR5 (11726645_a_at) / Fold change /veh CDHR5 (11726645_a_at) / RFU RCAN1 (11760418_a_at) / Fold change /veh RCAN1 (11760418_a_at) / RFU FAM167A (11723789_a_at) / Fold change /veh FAM167A (11723789_a_at) / RFU FAM26E (11764081_at) / Fold change /veh FAM26E (11764081_at) / RFU ISYNA1 (11749810_s_at) / Fold change /veh ISYNA1 (11749810_s_at) / RFU ACY1 (11761880_at) / Fold change /veh ACY1 (11761880_at) / RFU 11764098_at / Fold change /veh 11764098_at / RFU SAMD14 (11745864_x_at) / Fold change /veh SAMD14 (11745864_x_at) / RFU NPB (11741838_a_at) / Fold change /veh NPB (11741838_a_at) / RFU TMPRSS6 (11731388_a_at) / Fold change /veh TMPRSS6 (11731388_a_at) / RFU KRTAP10-2 (11738614_at) / Fold change /veh KRTAP10-2 (11738614_at) / RFU ARHGAP8 /// PRR5-ARHGAP8 (11727945_x_at) / Fold change /veh ARHGAP8 /// PRR5-ARHGAP8 (11727945_x_at) / RFU KRTAP5-7 /// NADSYN1 (11734609_at) / Fold change /veh KRTAP5-7 /// NADSYN1 (11734609_at) / RFU RASL12 (11751679_a_at) / Fold change /veh RASL12 (11751679_a_at) / RFU CDKN2B (11736163_a_at) / Fold change /veh CDKN2B (11736163_a_at) / RFU PRF1 (11729649_at) / Fold change /veh PRF1 (11729649_at) / RFU, ZNF638 /// ZNF638-IT1 / Fold change vs veh, ZNF638 /// ZNF638-IT1 / RFU, PANK3 / Fold change vs veh, PANK3 / RFU, SH3YL1 / Fold change vs veh, SH3YL1 / RFU, ZEB2 / Fold change vs veh, ZEB2 / RFU, NRIP1 / Fold change vs veh, NRIP1 / RFU, PTTG1IP / Fold change vs veh, PTTG1IP / RFU, CAPN2 / Fold change vs veh, CAPN2 / RFU, MED14 / Fold change vs veh, MED14 / RFU, SNORA58 / Fold change vs veh, SNORA58 / RFU, C1orf63 / Fold change vs veh, C1orf63 / RFU, LRRFIP1 / Fold change vs veh, LRRFIP1 / RFU, NDUFAF7 / Fold change vs veh, NDUFAF7 / RFU, SLC12A2 / Fold change vs veh, SLC12A2 / RFU, IBTK / Fold change vs veh, IBTK / RFU, ESF1 / Fold change vs veh, ESF1 / Fold change vs veh, TMEM50B / RFU, TAOK1 / Fold change vs veh, TAOK1 / RFU, ACBD3 / Fold change vs veh, ACBD3 / RFU, TMA16 / Fold change vs veh, TMA16 / RFU, RWDD3 / Fold change vs veh, RWDD3 / RFU, BCAT1 / Fold change vs veh, BCAT1 / RFU, EDEM3 / Fold change vs veh, EDEM3 / RFU, TMEM33 / Fold change vs veh, TMEM33 / RFU, WDR75 / Fold change vs veh, WDR75 / RFU, AHCTF1 / Fold change vs veh, AHCTF1 / RFU, TFRC / Fold change vs veh, TFRC / RFU, ZDHHC17 / Fold change vs veh, ZDHHC17 / RFU, NOM1 / Fold change vs veh, NOM1 / RFU, ARL8B / Fold change vs veh, ARL8B / RFU, ZBTB11 / Fold change vs veh, ZBTB11 / RFU, TAMM41 / Fold change vs veh, TAMM41 / RFU, KIAA1704 /// LOC100996395 / Fold change vs veh, KIAA1704 /// LOC100996395 / RFU, ING1 / Fold change vs veh, ING1 / RFU, TRMT61B / Fold change vs veh, TRMT61B / RFU, FUBP3 / Fold change vs veh, FUBP3 / RFU, TP53 / Fold change vs veh, TP53 / RFU, TNKS2 / Fold change vs veh, TNKS2 / RFU, ZFP14 / Fold change vs veh, ZFP14 / RFU, ACTR2 / Fold change vs veh, ACTR2 / RFU, PPP3R1 / Fold change vs veh, PPP3R1 / RFU, PIK3R1 / Fold change vs veh, PIK3R1 / RFU, HNRNPA1 / Fold change vs veh, HNRNPA1 / RFU, RNF170 / Fold change vs veh, RNF170 / RFU, ZNF28 / Fold change vs veh, ZNF28 / RFU, RNGTT / Fold change vs veh, RNGTT / RFU, OGT / Fold change vs veh, OGT / RFU, BRD1 / Fold change vs veh, BRD1 / RFU, MARS / Fold change vs veh, MARS / RFU, ZNF655 / Fold change vs veh, ZNF655 / RFU, FAHD1 / Fold change vs veh, FAHD1 / RFU, BDP1 / Fold change vs veh, BDP1 / RFU, LRRCC1 / Fold change vs veh, LRRCC1 / RFU, ARID1A / Fold change vs veh, ARID1A / RFU, ZNF146 / Fold change vs veh, ZNF146 / RFU, ZNF330 / Fold change vs veh, ZNF330 / RFU, GPN3 / Fold change vs veh, GPN3 / RFU, C9orf123 / Fold change vs veh, C9orf123 / RFU, N4BP2L2 / Fold change vs veh, N4BP2L2 / RFU, ARFIP1 / Fold change vs veh, ARFIP1 / RFU, FAM179B / Fold change vs veh, FAM179B / RFU, BCL10 / Fold change vs veh, BCL10 / RFU, UHRF1BP1L / Fold change vs veh, UHRF1BP1L / RFU, BET1 / Fold change vs veh, BET1 / RFU, CNOT2 / Fold change vs veh, CNOT2 / RFU, ZNF268 / Fold change vs veh, ZNF268 / Fold change vs veh, ZNF507 / RFU, DGCR2 / Fold change vs veh, DGCR2 / RFU, WDSUB1 / Fold change vs veh, WDSUB1 / Fold change vs veh, HSP90B1 /// MIR3652 / RFU, ADSS / Fold change vs veh, ADSS / RFU, GK / Fold change vs veh, GK / RFU, ZNF148 / Fold change vs veh, ZNF148 / RFU, TAF9 / Fold change vs veh, TAF9 / RFU, SLC1A5 / Fold change vs veh, SLC1A5 / RFU, SLMO2 / Fold change vs veh, SLMO2 / RFU, ABCC4 / Fold change vs veh, ABCC4 / RFU, LOC101060439 /// RAP1B / Fold change vs veh, LOC101060439 /// RAP1B / RFU, RFX7 / Fold change vs veh, RFX7 / RFU, GTPBP10 / Fold change vs veh, GTPBP10 / RFU, CNEP1R1 / Fold change vs veh, CNEP1R1 / RFU, BIVM-ERCC5 /// ERCC5 / Fold change vs veh, BIVM-ERCC5 /// ERCC5 / RFU, ILF3 / Fold change vs veh, ILF3 / RFU 11762660_at / Fold change /veh 11762660_at / RFU VCAN (11757783_s_at) / Fold change /veh VCAN (11757783_s_at) / RFU DDX43 (11728927_at) / Fold change /veh DDX43 (11728927_at) / RFU KRT8 (11758188_x_at) / Fold change /veh KRT8 (11758188_x_at) / RFU NKD1 (11759106_at) / Fold change /veh NKD1 (11759106_at) / RFU SRD5A1 (11742802_a_at) / Fold change /veh SRD5A1 (11742802_a_at) / RFU TPSAB1 /// TPSB2 (11721975_s_at) / Fold change /veh TPSAB1 /// TPSB2 (11721975_s_at) / RFU GSTM3 (11746129_a_at) / Fold change /veh GSTM3 (11746129_a_at) / RFU IL23R (11737362_x_at) / Fold change /veh IL23R (11737362_x_at) / RFU TMEM51 (11727254_a_at) / Fold change /veh TMEM51 (11727254_a_at) / RFU PIWIL2 (11732686_x_at) / Fold change /veh PIWIL2 (11732686_x_at) / RFU ORM1 (11744905_x_at) / Fold change /veh ORM1 (11744905_x_at) / RFU CCDC152 (11743942_at) / Fold change /veh CCDC152 (11743942_at) / RFU ECM1 (11717891_a_at) / Fold change /veh ECM1 (11717891_a_at) / RFU IL23R (11748794_a_at) / Fold change /veh IL23R (11748794_a_at) / RFU TNFAIP8L3 (11732012_x_at) / Fold change /veh TNFAIP8L3 (11732012_x_at) / RFU MBOAT4 (11741988_at) / Fold change /veh MBOAT4 (11741988_at) / RFU 11764193_at / Fold change /veh 11764193_at / RFU TMEM53 (11763286_at) / Fold change /veh TMEM53 (11763286_at) / RFU MAGEB2 (11727129_at) / Fold change /veh MAGEB2 (11727129_at) / RFU TMEM200A (11744735_a_at) / Fold change /veh TMEM200A (11744735_a_at) / RFU CCDC152 (11751479_a_at) / Fold change /veh CCDC152 (11751479_a_at) / RFU FAM211A (11726209_a_at) / Fold change /veh FAM211A (11726209_a_at) / RFU RGS16 (11746705_a_at) / Fold change /veh RGS16 (11746705_a_at) / RFU VCAN (11755009_s_at) / Fold change /veh VCAN (11755009_s_at) / RFU RHOB (11743442_s_at) / Fold change /veh RHOB (11743442_s_at) / RFU RGS16 (11720943_a_at) / Fold change /veh RGS16 (11720943_a_at) / RFU RGS16 (11720944_at) / Fold change /veh RGS16 (11720944_at) / RFU, VPS4B / Fold change vs veh, VPS4B / RFU, CREB1 / Fold change vs veh, CREB1 / RFU, DNAJC13 / Fold change vs veh, DNAJC13 / RFU, GNAQ / Fold change vs veh, GNAQ / RFU, CDK5R1 / Fold change vs veh, CDK5R1 / RFU, ZRANB3 / Fold change vs veh, ZRANB3 / RFU, CUL4A / Fold change vs veh, CUL4A / RFU, CCNY / Fold change vs veh, CCNY / RFU, UFL1 / Fold change vs veh, UFL1 / RFU, COG3 / Fold change vs veh, COG3 / RFU, DIAPH2 / Fold change vs veh, DIAPH2 / RFU, SKA2 / Fold change vs veh, SKA2 / RFU, AFF3 / Fold change vs veh, AFF3 / RFU, LMF1 / Fold change vs veh, LMF1 / RFU, IPO11 / Fold change vs veh, IPO11 / RFU, DFFB / Fold change vs veh, DFFB / RFU, FOXP1 / Fold change vs veh, FOXP1 / RFU, CARD8 / Fold change vs veh, CARD8 / RFU, STRN3 / Fold change vs veh, STRN3 / RFU, ADK / Fold change vs veh, ADK / RFU, RASSF2 / Fold change vs veh, RASSF2 / RFU, WIPF1 / Fold change vs veh, WIPF1 / RFU, LARP1B / Fold change vs veh, LARP1B / RFU, RASA1 / Fold change vs veh, RASA1 / RFU, RB1 / Fold change vs veh, RB1 / RFU, PPFIA1 / Fold change vs veh, PPFIA1 / RFU, MAT2A / Fold change vs veh, MAT2A / RFU, CCT5 / Fold change vs veh, CCT5 / RFU, WDR92 / Fold change vs veh, WDR92 / RFU, CUX1 / Fold change vs veh, CUX1 / RFU, TTC7A / Fold change vs veh, TTC7A / RFU, TMEM135 / Fold change vs veh, TMEM135 / RFU, DEPTOR / Fold change vs veh, DEPTOR / RFU, CPM / Fold change vs veh, CPM / RFU, DNAJB6 / Fold change vs veh, DNAJB6 / RFU, CACNA2D3 / Fold change vs veh, CACNA2D3 / RFU, DTX4 / Fold change vs veh, DTX4 / RFU, TFCP2 / Fold change vs veh, TFCP2 / RFU, GMCL1 /// GMCL1P1 / Fold change vs veh, GMCL1 /// GMCL1P1 / RFU, AEBP2 / Fold change vs veh, AEBP2 / RFU, SNHG1 /// SNORD22 /// SNORD25 /// SNORD26 /// SNORD27 /// SNORD28 /// SNORD29 /// SNORD31 / Fold change vs veh, SNHG1 /// SNORD22 /// SNORD25 /// SNORD26 /// SNORD27 /// SNORD28 /// SNORD29 /// SNORD31 / Fold change (Aza/veh), C12orf56 (ProbeSet 11735607_a_at) / Fold change (ACY-1035/veh), C12orf56 (ProbeSet 11735607_a_at) / Fold change (Aza/veh), FGFR1OP (ProbeSet 11751329_s_at) / Fold change (ACY-1035/veh), FGFR1OP (ProbeSet 11751329_s_at) / Fold change (Aza/veh), VPS36 (ProbeSet 11739960_a_at) / Fold change (ACY-1035/veh), VPS36 (ProbeSet 11739960_a_at) / RFU SYPL1 (11715823_x_at) / Fold change /veh SYPL1 (11715823_x_at) / RFU IGFBP7 (11715501_s_at) / Fold change /veh IGFBP7 (11715501_s_at) / RFU REEP3 (11722064_at) / Fold change /veh REEP3 (11722064_at) / RFU IGLL1 (11728026_x_at) / Fold change /veh IGLL1 (11728026_x_at): dose or concentration left out as unconfirmed. The assay is classed as cell-based, human. The settings on record: ProbeSet 11722022_s_at; LIST D.

As for `Nc1ncn([C@@H]2O[C@H](CO)[C@@H](O)[C@H]2O)c(=O)n1` [azacitidine], the “Fold change vs veh, CDK5R1” value is given as 0.77.
